According to patent US20240317708A1, “INHIBITORS OF TRANSGLUTAMINASES” (ZEDIRA GMBH, priority 2021, published 2024):

Tests used:
[1] = target: T1, recombinant human transglutaminase 2 (Homo sapiens, UniProt P21980); experiment: Transglutaminase assay (dansylcadaverine incorporation into dimethylcasein, DCC-assay); format: biochemical; settings: recombinant human TG2 10 nM, dansylcadaverine/dimethylcasein, 37° C.
T1 construct: purchased Zedira T022
T1 sequence (P21980 1-687): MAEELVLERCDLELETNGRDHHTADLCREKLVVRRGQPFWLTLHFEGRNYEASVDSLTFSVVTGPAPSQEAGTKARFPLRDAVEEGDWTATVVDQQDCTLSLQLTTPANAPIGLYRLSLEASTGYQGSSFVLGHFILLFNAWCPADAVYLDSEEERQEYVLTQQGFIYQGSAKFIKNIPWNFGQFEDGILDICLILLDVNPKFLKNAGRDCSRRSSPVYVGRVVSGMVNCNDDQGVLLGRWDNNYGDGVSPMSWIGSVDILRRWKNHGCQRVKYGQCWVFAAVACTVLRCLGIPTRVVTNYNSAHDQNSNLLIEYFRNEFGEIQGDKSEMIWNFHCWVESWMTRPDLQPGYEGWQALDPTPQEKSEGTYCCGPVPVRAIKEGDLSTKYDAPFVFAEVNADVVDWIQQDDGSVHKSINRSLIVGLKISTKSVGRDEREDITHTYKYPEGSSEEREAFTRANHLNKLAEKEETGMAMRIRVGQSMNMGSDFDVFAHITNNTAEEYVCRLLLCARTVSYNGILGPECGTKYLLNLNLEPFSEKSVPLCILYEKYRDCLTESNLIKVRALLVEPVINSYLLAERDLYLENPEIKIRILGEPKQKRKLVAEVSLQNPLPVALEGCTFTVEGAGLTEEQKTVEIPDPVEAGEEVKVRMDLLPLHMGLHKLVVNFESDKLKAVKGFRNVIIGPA
Outline: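 IC50 derived from fluorescence slope between 20 and 30 min (λex 330 nm, λem 500 nm, 37 °C), expressed relative to a 2% DMSO control. Reaction: 10 nM recombinant human TG2, 4 μM dimethylcasein, 16.7 μM dansylcadaverine, 10 mM CaCl2 and glutathione, pH 8.0.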

[2] = Log D shake flask method (octanol / PBS pH 7.4, HPLC); format: physicochemical; settings: octanol/phosphate-buffered saline (PBS); octanol / PBS pH 7.4, shake flask
Procedure: In order to classify the inventive compounds according to their lipophilicity, Log D values (distribution coefficient) were determined by means of the well-established shake flask method, measuring the partition of a compound between an octanol and phosphate-buffered saline (PBS, pH 7.4) by HPLC.

[3] = Caco-2 permeability assay (CacoReady kit); format: in vitro ADME; settings: human
Outline: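 Apparent permeability coefficients (Papp) were measured across Caco-2 cell barriers using a ready-to-use kit run per the supplier's protocol. Values serve as a predictor of oral/intestinal bioavailability.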

Row | SMILES | IC50 [1] [nM] | logD [2] | Papp [3] [×10⁻⁶ cm/s]
1 | COC(=O)/C=C/CC[C@H](NC(=O)c1cc(Br)cs1)C(=O)Nc1cccn(CC(=O)NC2C3CC4CC(C3)CC2C4)c1=O (stereo partly drawn) [III-18, (S,E)-methyl 6-(4-bromothiophene-2-carboxamido)-7-(1-(2-(2-adamantylamino)-2-oxoethyl)-2-oxo-1,2-dihydropyridin-3-ylamino)-7-oxohept-2-enoate] | < 25 | 3 to 5 | < 1
2 | COC(=O)/C=C/CC[C@H](NC(=O)c1oc2ccccc2c1C)C(=O)Nc1cccn(CC(=O)NC23CC4CC(CC(Br)(C4)C2)C3)c1=O [III-53, (S,E)-methyl 7-(1-(2-(3-bromoadamantan-1-amino)-2-oxoethyl)-2-oxo-1,2-dihydropyridin-3-ylamino)-6-(3-methylbenzofuran-2-carboxamido)-7-oxohept-2-enoate] | < 25 | 3 to 5 | 1 to 10
3 | Cc1nc2ncccc2cc1C(=O)N[C@@H](CC/C=C/C(=O)NC1CCCC1)C(=O)Nc1cccn(CC(=O)NC23CC(C2)C3)c1=O [III-146, (S,E)-N7-(1-(2-(bicyclo[1.1.1]pentan-1-ylamino)-2-oxoethyl)-2-oxo-1,2-dihydropyridin-3-yl)-N1-cyclopentyl-6-(2-methyl-1,8-naphthyridine-3-carboxamido)hept-2-enediamide] | 250 to 1500 | < 1 | < 1
4 | COC(=O)/C=C/CC[C@H](NC(=O)c1coc2ccccc12)C(=O)Nc1cccn(CC(=O)NC2C3CC4CC(C3)CC2C4)c1=O (stereo partly drawn) [III-106, (S,E)-methyl 6-(benzofuran-3-carboxamido)-7-(1-(2-(2-adamantylamino)-2-oxoethyl)-2-oxo-1,2-dihydropyridin-3-ylamino)-7-oxohept-2-enoate] | 25 to 250 | 3 to 5 | 1 to 10
5 | COC(=O)/C=C/CC[C@H](NC(=O)c1oc2ccccc2c1C)C(=O)Nc1cccn(CC(=O)NCC23CC4CC(CC(C4)C2)C3)c1=O [III-56, (S,E)-methyl 7-(1-(2-(1-adamantylmethylamino)-2-oxoethyl)-2-oxo-1,2-dihydropyridin-3-ylamino)-6-(3-methylbenzofuran-2-carboxamido)-7-oxohept-2-enoate] | 25 to 250 | 3 to 5 | 1 to 10
6 | COC(=O)/C=C/CC[C@H](NC(=O)c1ccc2occc2c1)C(=O)Nc1cccn(CC(=O)NC2C3CC4CC2CC(NC(C)=O)(C4)C3)c1=O (stereo partly drawn) [III-165, (S,E)-methyl 6-(benzofuran-5-carboxamido)-7-(1-(2-(1-acetylamino-4-aminoadamantane)-2-oxoethyl)-2-oxo-1,2-dihydropyridin-3-ylamino)-7-oxohept-2-enoate] | 25 to 250 | 1 to 3 | < 1
7 | COC(=O)/C=C/CC[C@H](NC(=O)c1oc2ccccc2c1C)C(=O)Nc1cccn(CC(=O)NC23CC4CC(CC(Cl)(C4)C2)C3)c1=O [III-52, (S,E)-methyl 7-(1-(2-(3-chloroadamantan-1-amino)-2-oxoethyl)-2-oxo-1,2-dihydropyridin-3-ylamino)-6-(3-methylbenzofuran-2-carboxamido)-7-oxohept-2-enoate] | < 25 | 3 to 5 | 1 to 10
8 | COC(=O)/C=C/CC[C@H](NC(=O)c1ccnn1C)C(=O)Nc1cccn(CC(=O)NC2C3CC4CC(C3)CC2C4)c1=O (stereo partly drawn) [III-119, (S,E)-methyl 7-(1-(2-(2-adamantylamino)-2-oxoethyl)-2-oxo-1,2-dihydropyridin-3-ylamino)-6-(1-methyl-1H-pyrazole-5-carboxamido)-7-oxohept-2-enoate] | < 25 | < 1 | < 1
9 | COC(=O)/C=C/CC[C@H](NC(=O)c1oc2ccccc2c1C)C(=O)Nc1cccn(CC(=O)N[C@@H]2C[C@H]3CC[C@]2(C)C3(C)C)c1=O [III-68, (S,E)-methyl 6-(3-methylbenzofuran-2-carboxamido)-7-oxo-7-(2-oxo-1-(2-oxo-2-((1R,2R,4R)-1,7,7-trimethylbicyclo[2.2.1]heptan-2-ylamino)ethyl)-1,2-dihydropyridin-3-ylamino)hept-2-enoate] | < 25 | 3 to 5 | 1 to 10
10 | COC(=O)/C=C/CC[C@H](NC(=O)c1snnc1C)C(=O)Nc1cccn(CC(=O)N[C@H]2C[C@H]3CC[C@]2(C)C3(C)C)c1=O [III-120, (S,E)-methyl 6-(4-methyl-1,2,3-thiadiazole-5-carboxamido)-7-oxo-7-(2-oxo-1-(2-oxo-2-((1R,2S,4R)-1,7,7-trimethylbicyclo[2.2.1]heptan-2-ylamino)ethyl)-1,2-dihydropyridin-3-ylamino)hept-2-enoate] | < 25 | 1 to 3 | < 1
11 | COC(=O)/C=C/CC[C@H](NC(=O)c1sc(C(F)(F)F)nc1C)C(=O)Nc1cccn(CC(=O)N[C@@H]2C[C@H]3CC[C@@H]2C3)c1=O [III-98, (S,E)-methyl 7-(1-(2-((1R,2R,4S)-bicyclo[2.2.1]heptan-2-ylamino)-2-oxoethyl)-2-oxo-1,2-dihydropyridin-3-ylamino)-6-(4-methyl-2-(trifluoromethyl)thiazole-5-carboxamido)-7-oxohept-2-enoate] | < 25 | 1 to 3 | 1 to 10
12 | COC(=O)/C=C/CC[C@H](NC(=O)[C@@H]1CCCN1C(C)=O)C(=O)Nc1cccn(CC(=O)NC2C3CC4CC(C3)CC2C4)c1=O (stereo partly drawn) [III-21, (S,E)-methyl 6-((S)-1-acetylpyrrolidine-2-carboxamido)-7-(1-(2-(2-adamantylamino)-2-oxoethyl)-2-oxo-1,2-dihydropyridin-3-ylamino)-7-oxohept-2-enoate] | < 25 | 1 to 3 | < 1
13 | CC(=O)/C=C/CC[C@H](NC(=O)c1ncn(C)n1)C(=O)Nc1cccn(CC(=O)NC2C3CCCC2CC3)c1=O (stereo partly drawn) [III-159, N-((2S,E)-1-(1-(2-(bicyclo[3.2.1]octan-8-ylamino)-2-oxoethyl)-2-oxo-1,2-dihydropyridin-3-ylamino)-1,7-dioxooct-5-en-2-yl)-1-methyl-1H-1,2,4-triazole-3-carboxamide] | 250 to 1500 | < 1 | < 1
14 | COC(=O)/C=C/CC[C@H](NC(=O)c1cc2ccccc2s1)C(=O)Nc1cccn(CC(=O)NC2C3CC4CC(C3)CC2C4)c1=O (stereo partly drawn) [III-5, (S,E)-methyl 6-(benzo[b]thiophene-2-carboxamido)-7-(1-(2-(2-adamantylamino)-2-oxoethyl)-2-oxo-1,2-dihydropyridin-3-ylamino)-7-oxohept-2-enoate] | < 25 | 3 to 5 | 1 to 10
15 | COC(=O)/C=C/CC[C@H](NC(=O)c1cc2ccccc2[nH]1)C(=O)Nc1cccn(CC(=O)NC2C3CC4CC(C3)CC2C4)c1=O (stereo partly drawn) [III-8, (S,E)-methyl 6-(1H-indole-2-carboxamido)-7-(1-(2-(2-adamantylamino)-2-oxoethyl)-2-oxo-1,2-dihydropyridin-3-ylamino)-7-oxohept-2-enoate] | < 25 | 3 to 5 | < 1
16 | COC(=O)/C=C/CC[C@H](NC(=O)c1cc(Cl)sc1Cl)C(=O)Nc1cccn(CC(=O)N[C@@H]2C[C@H]3CC[C@@H]2C3)c1=O [III-97, (S,E)-methyl 7-(1-(2-((1R,2R,4S)-bicyclo[2.2.1]heptan-2-ylamino)-2-oxoethyl)-2-oxo-1,2-dihydropyridin-3-ylamino)-6-(2,5-dichlorothiophene-3-carboxamido)-7-oxohept-2-enoate] | < 25 | 3 to 5 | 1 to 10
17 | COC(=O)/C=C/CC[C@H](NC(=O)c1cnnn1C)C(=O)Nc1cccn(CC(=O)N[C@H]2C[C@H]3CC[C@]2(C)C3(C)C)c1=O [III-121, (S,E)-methyl 6-(1-methyl-1H-1,2,3-triazole-5-carboxamido)-7-oxo-7-(2-oxo-1-(2-oxo-2-((1R,2S,4R)-1,7,7-trimethylbicyclo[2.2.1]heptan-2-ylamino)ethyl)-1,2-dihydropyridin-3-ylamino)hept-2-enoate] | < 25 | 1 to 3 | < 1
18 | COC(=O)/C=C/CC[C@H](NC(=O)c1oc2ccccc2c1C)C(=O)Nc1cccn(CC(=O)NC2CC3CCC2CC3)c1=O (stereo partly drawn) [III-67, (6S,E)-methyl 7-(1-(2-(bicyclo[2.2.2]octan-2-ylamino)-2-oxoethyl)-2-oxo-1,2-dihydropyridin-3-ylamino)-6-(3-methylbenzofuran-2-carboxamido)-7-oxohept-2-enoate] | < 25 | 3 to 5 | 1 to 10
